Read-outs that look alike come from different tables or passages of the source.

Assay [1] concerns the target T1, human MCT1 (Homo sapiens, UniProt P53985).
T1 construct: host or cells: MDCK-II (canine) cells, transient co-transfection
T1 sequence (P53985 1-500): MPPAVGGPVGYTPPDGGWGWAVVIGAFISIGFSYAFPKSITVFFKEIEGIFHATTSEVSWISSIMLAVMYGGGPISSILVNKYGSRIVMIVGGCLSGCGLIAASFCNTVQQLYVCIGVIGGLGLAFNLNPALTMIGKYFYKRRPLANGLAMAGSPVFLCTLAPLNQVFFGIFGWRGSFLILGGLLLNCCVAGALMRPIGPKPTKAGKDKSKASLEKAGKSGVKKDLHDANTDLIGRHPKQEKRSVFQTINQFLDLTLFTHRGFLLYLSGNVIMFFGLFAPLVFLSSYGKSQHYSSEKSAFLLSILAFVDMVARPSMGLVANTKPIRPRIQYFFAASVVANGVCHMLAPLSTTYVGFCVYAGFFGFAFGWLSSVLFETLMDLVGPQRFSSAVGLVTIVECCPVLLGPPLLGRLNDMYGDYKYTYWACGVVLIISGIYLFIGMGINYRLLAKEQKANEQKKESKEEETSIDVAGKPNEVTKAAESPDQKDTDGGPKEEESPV
T1 sequence (P35613 140-385 partner limits assumed): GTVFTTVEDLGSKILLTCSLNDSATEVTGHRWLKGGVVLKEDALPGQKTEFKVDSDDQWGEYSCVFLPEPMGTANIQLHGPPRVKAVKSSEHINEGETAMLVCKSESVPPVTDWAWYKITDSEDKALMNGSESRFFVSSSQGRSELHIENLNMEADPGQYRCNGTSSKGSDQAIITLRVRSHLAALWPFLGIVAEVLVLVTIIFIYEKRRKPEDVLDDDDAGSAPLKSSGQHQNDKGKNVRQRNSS
The assay is described as follows: MCT1 Transport Inhibition Assay (TPGA uptake, LC-MS/MS). The class given is cell-based. The protocol:
Inhibition of MCT1 transport after treatment with compounds of the present invention was measured in MDCK-II cells that overexpress human MCT1 by quantifying the transport of 2-Thiophene-glycoxylic acid (TPGA) into cells using LC-MS/MS.
MDCK-II cells are seeded at 60,000 cells per well in growth medium (low-glucose DMEM+10% FBS) in 96-well trans-well membrane plates, and incubated overnight (37° C., 5% CO2). Cells were co-transfected with mammalian expression constructs coding for MCT1 and CD147 at a 2:1 ratio or an empty vector control (GFP) and then incubated for 48 h (37° C., 5% CO2). Cells were washed 3 times with HBSS and cells were preincubated with inhibitors or vehicle control at room temperature in HBSS for 30 min with orbital shaking (60 rpm). HBSS was aspirated from the wells and replaced with HBSS with 25 mM Bis-Tris pH5.5+inhibitor or vehicle control+500 μM TPGA and incubated for 1 min at room temperature with orbital shaking (60 rpm). Both the apical and basolateral side of the trans-well insert were washed 4 times with ice-cold PBS. Cells were lysed with 60 μL of cell extraction solution, and the amount of TPGA in each well was quantified in triplicate by LC-MS/MS. The MCT1-mediated uptake rate was calculated using the following equation: […]
Percent inhibition for each concentration of inhibitor tested was calculated using the following equation: […]
Curves were fit to the calculated percent inhibition for each inhibitor, and the IC50 representing the concentration of inhibitor at which MCT1 is inhibited by 50% was calculated from this curve.
Canine MDCKII cells expressing human MCT1 were treated with a titration of Compound 67A, and import of the MCT1 substrate, 2-TPGA was measured by LC-MS (FIG. 1).

Assay [2] relates to Pfeiffer. The assay is described as follows: Compound 67A sensitivity of CRISPR screen cell line Pfeiffer. The assay is classed as cell-based. The settings on record: Homo sapiens, Lymphoma. From the text: (§1) Three cell lines with varying sensitivities to Compound 67A were utilized in the CRISPR screen (Table 3, FIG. 11).
The test system of assay [3] is T47D. In words: Compound 67A sensitivity / cell growth inhibition of CRISPR screen cell line T47D. The class given is cell-based.
Source text: as §1
Screen hits (FDR<0.2) were identified using the drugZ algorithm (FIG. 13). MCT4 was the most significant hit consistent between the SU8686 and T47D cell lines, sensitizing both lines to Compound 67A treatment.

For assay [4], the target named is T2, MCT1/BSG complex (Homo sapiens, UniProt P53985).
T2 sequence (P53985 1-500): T1 sequence (P53985 1-500)
T2 sequence (P35613 140-385 partner limits assumed): T1 sequence (P35613 140-385 partner limits assumed)
The assay is described as follows: Microscale thermophoresis (MST) direct binding. The settings on record: purified hexahistidine-tagged MCT1/BSG complex, read-out: Kd, binding to MCT1/basigin. The text has this: Microscale thermophoresis (MST) monitors the solution phase change in protein fluorescence and mobility in response to a temperature gradient created with an infrared laser. The method is compatible with detergent solubilized proteins and enables measurement of direct ligand binding.
Purified hexahistidine-tagged MCT1/BSG complex was mixed with a hexahistidine interacting fluorescent dye and MST was monitored as a function of compound concentration.
A general note: Microscale thermophoresis detects binding through changes in fluorescence in a small temperature gradient.

In assay [5] the test system is SU8686. The assay is described as follows: Compound 67A sensitivity of CRISPR screen cell line SU8686. The class given is cell-based. The settings on record: Homo sapiens, SU.86.86; SU8686, Pancreatic Cancer.
Source text: as §1

In assay [6] the test system is Daudi (Burkitt Lymphoma) cells. The assay is described as follows: Intracellular Lactate Accumulation Assay (Lactate-Glo). The class given is cell-based, human. How it is done: Intracellular lactate accumulation after a 2 h treatment with compounds of the present invention was measured in Daudi (Burkitt Lymphoma) cells using the Lactate-Glo Assay (Promega).
Daudi cells were seeded at 7,500 cells per well in 150 μL of growth medium (RPMI-1640 with 2 mM GlutaMAX+10% FBS) in clear, 96-well, flat-bottom microplates, and incubated overnight (37° C., 5% CO2). Compounds of the present invention were added using an INTEGRA VIAFLO 96 (8 point, 3-fold serial dilution, top concentration 1, 10, or 20 μM, 0.4% final DMSO concentration). After a 2 h incubation (37° C., 5% CO2) microplates containing cells were washed twice with 150 μL ice-cold PBS, resuspended in 25 μL ice-cold PBS containing 12.5 μL 0.6N HCl, and placed on a microplate shaker for 5 min to lyse the cells. Following lysis, 12.5 μL 1M Trizma base was added to neutralize the suspension, and microplates were returned to the microplate shaker for 1 min. Plates were sealed and stored at −20° C. until further processing. On the day of the assay, microplates were thawed for 45 min at room temperate and 50 μL Lactate Detection Reagent (prepared as specified by manufacturer) was added to each well. Microplates were placed on a plate shaker for 1 min and incubated at room temperature for 1 h. Luminescence was measured using a BioTek Cytation 5 Multi-Mode Reader. Curve fitting and calculation of EC50 was performed using GraphPad Prism.
In addition, Daudi human lymphoma cells were treated with a titration of Compound 67A for 4 h, then intracellular lactate was measured via LactateGlo (FIG. 2). Compound 67A treatment elevates intracellular lactate (FIGS. 3-5). […] Inhibiting MCT function in glycolytic cancer cells leads to an accumulation of intracellular lactate that impairs glycolysis and inhibits tumor cell growth, thereby making MCTs an attractive target for cancer therapy. Compound 67A inhibits the import of MCT ligands into cells, and induces dose-dependent intracellular lactate accumulation that correlates with cytotoxicity. MCT4 expression inversely correlates with lactate accumulation and the extent of Compound 67A cytotoxicity in cells.

The mark [7] stands for this setting: MDCK-II cells overexpressing human MCT1, TPGA transport, read-out: BioIVT MCT1 Transporter IC50.

Take AZD3965: in assay [1] (setting [7]), the concentration for half-maximal inhibition (IC50) (commonly the midpoint of a concentration-inhibition curve) is 0.15 to 1 µM.
Take `O=C(Nc1ccccc1C(=O)O)c1cc(S(=O)(=O)c2ccccc2)ccc1Cl` [BAY8002]: in assay [1] (setting [7]), the IC50 lay within 0.05 to 0.15 µM.
`CC(C)OC(=O)Nc1ccc(-c2cnc([C@H]3CC[C@H](NC(=O)OC(C)C)CC3)s2)c(S(=O)(=O)NC(C)(C)C)c1` [Compound 67A]: the IC50 in assay [2] was 0.52 µM; in assay [3] (Homo sapiens, T47D, Breast Cancer), 5.86 µM; in assay [1] (Canine MDCKII cells expressing human MCT1, LC-MS, read-out: inhibits 2-TPGA import, IC50) it was 0.134 µM; in assay [1] (setting [7]) it was 0.05 to 0.15 µM; in assay [5], above 20 µM; in assay [6] (Daudi human lymphoma cells, 4 h treatment, LactateGlo, read-out: induces lactate accumulation, IC50), 0.37 µM. For the same molecule, in assay [3] (T47D cells, MCT4 knockout), the “effect of MCT4 knockout on cell growth inhibition” value was “enhanced Compound 67A-mediated cell growth inhibition”. Moreover, the Kd in assay [4] came to 0.089 µM. For the same molecule, the concentration for a half-maximal effect (EC50) (in general, the concentration giving half of the maximal effect) in assay [6] (Homo sapiens, Daudi cells, 2 h treatment, intracellular lactate accumulation, read-out: LactateGlo EC50) fell in the range of 0.15 to 1 µM.

Values taken from patent US20250186404A1, “METHODS OF USING A (THIAZOLYL)BENZENESULFONAMIDE DERIVATIVE” (Cyteir Therapeutics, Inc., priority 2023, published 2025).
